Among the data in PubChem BioAssay AID651717 (Broad Institute, 2012) are AC40 values, retold here.

Bounds are passed on as bounds.

For the assay, the system named is mESC Bmi1-luciferase reporter, firefly/renilla ratio, 24 h. Nature of the assay: compounds raising Bmi1 reporter signal – mouse embryonic stem cells, luciferase, cherry-pick, esBAF inhibitor project, dose response (AID 651717).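 Note: luciferase knocked into Bmi1 locus with EF-1a renilla as cell number control; rising ratio signals esBAF inhibition which derepresses Bmi1.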
Turning to `Cc1ccn2cc(C(=O)Nc3nnc(C)s3)nc2c1`, the AC40 was 1.17 µM.

Consider `COc1cccc(/C=N/n2c(N)nc3ccccc32)c1OC`, for which the AC40 is 3.21 µM.

Turning to `COc1ccc(/C=N/NC(=O)c2cccs2)c2ccccc12`, the AC40 was 9.35 µM.

For the compound `Cc1ccc(-c2csc(NC(=O)c3ccno3)n2)cc1`, the AC40 is 8.99 µM.

In the case of `Brc1ccccc1-c1nnc(-c2cccnc2)o1`, the AC40 was 6.08 µM.

As to `Nc1cc(OCc2ccccc2)ccc1OCc1ccccc1`, the AC40 is 5.17 µM.

As for `CNc1nc(-c2ccc3c(c2)CCN3C(=O)c2ccc(F)cc2)cs1`, the AC40 was 8.13 µM.

On to `COc1ccc(C(=O)Nc2ccc(Cl)cn2)cc1Cl`, for which the AC40 is 2.38 µM.

With `COc1ccc2[nH]c(=O)c(-c3nnn(-c4ccccc4)n3)cc2c1`, the AC40 was 11.6 µM.

Turning to `COc1ccc(C2Nc3ccccc3C(=O)N2c2ccc(C)cc2)cc1Cn1nc(C)c([N+](=O)[O-])c1C` (stereo not drawn), the AC40 was 12.6 µM.

As for `CC(=O)Nc1ccc2nc(C)n(Cc3ccc(Cl)cc3)c(=O)c2c1`, the AC40 was 4.21 µM.

In the case of `Cn1c(COc2ccccc2)nc2ccccc21`, the AC40 is 2.59 µM.

In the case of `CCC1CCCCN1C(=O)c1ccc2nc(Cc3ccc(OC)cc3)oc2c1` (stereo not drawn), the AC40 was 3.04 µM.

As to `c1csc(Cc2nc3ccccc3[nH]2)c1`, the AC40 was 16.2 µM.

For `Clc1ccc(-c2nnc(-c3cccc4ccccc34)o2)cc1`, the AC40 was 1.79 µM.

For the compound `O=C(Cc1ccccc1)Nc1ccc2c(c1)OC1(CCCC1)O2`, the AC40 was 3.73 µM.

As to `CCc1sc(C(=O)Nc2ccc3nc(C)sc3c2)cc1C`, the AC40 is 4.74 µM.

With `COc1cccc(C(=O)c2cc3cc(Cl)ccc3[nH]2)c1`, the AC40 is 3.55 µM.

As for `c1ccc(Nc2ccc3ccccc3c2)cc1`, the AC40 is 3.83 µM.

As to `COc1cc(N=Nc2ccc(C(=O)N(C)C)cc2)c(C)cc1N`, the AC40 was 8.86 µM.

Take `CCOc1ccc(N=C(/C(C(=O)C(=O)N2CCOCC2)=C(\O)c2ccccc2)c2ccccc2)cc1`: the AC40 is 11.2 µM.

`O=C(O)c1cncc(C#CCC2CCCCC2)c1`: the AC40 is 15.6 µM.

Regarding `Cc1ccc(C(=O)CNc2ccccc2)cc1`, the AC40 was 16.6 µM.

For the compound `Cc1cc(C(=O)Nc2sc(C)c(-c3ccc(F)cc3)c2C(N)=O)no1`, the AC40 was 0.612 µM.

Turning to `CCCC(=O)Nc1nc(-c2ccc(OC)cc2)cs1`, the AC40 was 7.09 µM.

As to `CN(C)S(=O)(=O)c1ccc2c(c1)/C(=C/c1cc3c([nH]1)CCCC3)C(=O)N2`, the AC40 was 3.25 µM.

For `COc1ccccc1CNC(=O)C[C@H]1CC[C@H]2[C@@H](COC[C@@H](O)CN2C(=O)Nc2ccc(Cl)cc2)O1`, the AC40 was 1.05 µM.

Regarding `O=C(NNC(=O)c1ccccc1OCc1ccccc1)c1ccccc1F`, the AC40 is 11.5 µM.

As for `N#CCc1nc(CSc2nc3ccccc3s2)cs1`, the AC40 was 9.73 µM.

Consider `O=C1NCCC/C1=N/Nc1cc(F)ccc1F`, for which the AC40 was 2.6 µM.

Consider `CC(C)c1ccc(CNc2ncccn2)cc1`, for which the AC40 is 2.82 µM.

As to `O=C(c1csc(Nc2ccccc2Cl)n1)N1CCCC1`, the AC40 was 1.07 µM.

On to `COc1ccc(-c2ccc3n2Cc2cnnn2-c2ccccc2-3)cc1`, for which the AC40 was 4.57 µM.

With `Cc1csc(-c2ccc3cc(Cl)cc(Cl)c3n2)n1`, the AC40 was 5.82 µM.

Regarding `Cc1cccc(Oc2ccc(Cl)cc2N)c1`, the AC40 is 5.77 µM.

On to `COc1ccc2c(=O)c(-c3ccc(OC)c(OC)c3)coc2c1`, for which the AC40 is 2.69 µM.

In the case of `O=c1c2ccccc2sc2ccccc12`, the AC40 is 2.41 µM.

`Clc1ccccc1C=NNc1ccccn1`: the AC40 was 2.27 µM.

Turning to `O=C(O)c1cc(-c2ccc(-c3c(-c4ccc5c(c4)OCO5)noc3-c3ccsc3)cc2)nc2ccccc12`, the AC40 is 6.89 µM.

On to `C=CCNc1nc2cc(-c3ccccc3OC)sc2c(=O)n1C`, for which the AC40 is 5.18 µM.

On to `COc1cc(/C=C2/C(=N)N3N=C(CC(=O)N4CCOCC4)SC3=NC2=O)ccc1OCc1ccc(F)cc1`, for which the AC40 is 3.4 µM.

Consider `Cc1ccc(C(=O)Cc2ccccc2)c(O)c1`, for which the AC40 was 6.34 µM.

In the case of `CCCC(=O)Nc1sc2c(c1C#N)CCCCC2`, the AC40 was 2.39 µM.

As to `CC(=O)N1N=C(c2ccc(Br)cc2)CC1c1ccc(Br)cc1` (stereo not drawn), the AC40 was 14.5 µM.

With `O=C(Nc1ccc(F)cc1F)NC1CCCCCCC1`, the AC40 is 5.14 µM.

Turning to `CS(=O)(=O)c1ccc2nc(NC(=O)c3ccccc3Br)sc2c1`, the AC40 was 6.16 µM.

`Fc1cccc(-c2ncc(-c3ccccc3)o2)c1`: the AC40 was 0.768 µM.

In the case of `C/C(=C\C(=O)c1cccnc1)Nc1ccc(C)c(C)c1`, the AC40 is 3.36 µM.

Take `CS(=O)(=O)N1CCc2cc(C(=O)Nc3ccc(Cl)cc3)ccc21`: the AC40 is 6.5 µM.

For the compound `COc1ccc(Nc2ccc3ccccc3c2)cc1`, the AC40 was 1.13 µM.

Turning to `O=c1sc(N2CCN(c3ccc(F)cc3)CC2)nc2ccsc12`, the AC40 was 1.76 µM.

As to `COc1cc(Cl)ccc1OCc1cc(C(=O)N2CCN(C)C(=O)[C@@H]2C)no1`, the AC40 was 1.64 µM.

Turning to `Clc1ccc(C=NN2CCCCCC2)cc1`, the AC40 is 0.983 µM.

For the compound `Oc1ccc(Cl)cc1C=NN1CCCCCC1`, the AC40 is 1.37 µM.

In the case of `CC(=O)Nc1ccccc1OCc1nnc(-c2ccc(Cl)cc2)o1`, the AC40 is 8.95 µM.

`N#Cc1ccc(Nc2nc(-c3ccccc3)cs2)cc1`: the AC40 was 3.97 µM.

As for `Cc1ccc(OCn2c(=O)sc3ccccc32)cc1`, the AC40 was 6.12 µM.

Consider `Cc1ccc(C2/C(=C(/O)c3cnn(-c4ccccc4)c3C)C(=O)C(=O)N2CCN2CCOCC2)o1` (stereo not drawn), for which the AC40 is 8.69 µM.

On to `CS(=O)(=O)c1cccc(-c2csc(N3CCC(C(N)=O)CC3)n2)c1`, for which the AC40 is under 0.26 µM.

Turning to `Cc1cccc(COc2ccc(/C=N/NC(=O)c3nnn(-c4nonc4N)c3CN3CCCCC3)cc2)c1`, the AC40 was 34.2 µM.

Regarding `Cc1cccc(N2C(=O)CC(N(O)c3ccccc3)C2=O)c1` (stereo not drawn), the AC40 is 28.4 µM.

As to `CCCN1C[C@@H](C)[C@H](OC)CN(C)C(=O)c2cc(NC(=O)c3ccccc3F)ccc2OC[C@H]1C`, the AC40 is 5.77 µM.

On to `CO[C@H]1CN(C)C(=O)c2ccc(NC(=O)Nc3ccc4c(c3)OCO4)cc2OC[C@@H](C)NC[C@@H]1C`, for which the AC40 was 2.76 µM.

Consider `C#CCN(CC=C)C(=O)CCc1nnc(COc2ccccc2)o1`, for which the AC40 was 22.4 µM.

With `O=C(Nc1ccccc1Cl)c1cc(=O)c2ccccc2o1`, the AC40 was 0.468 µM.

Turning to `COc1ccc(-c2cn3c(C)c(C(=O)NC(C)(C)C)sc3n2)cc1`, the AC40 is 1.02 µM.

`Cn1cccc1C(=O)NC1CCCCCC1`: the AC40 is 3.74 µM.

Regarding `Cc1ccc(C(=O)Nc2ccc3c(c2)OCO3)cc1S(=O)(=O)N1CCCCC1`, the AC40 is 1.69 µM.

`O=P(O)(O)c1ccccc1OCCOCCOCCOCCOc1ccccc1P(=O)(O)O`: the AC40 is 8.04 µM.

With `CC1CCN(c2oc(-c3cccc4ccccc34)nc2C#N)CC1`, the AC40 was 2.52 µM.

Turning to `Oc1ccc(-c2nccc(-c3ccccn3)n2)cc1`, the AC40 was 3.66 µM.

As for `O=C(NCC1CC1)Nc1ccc(Cl)cc1`, the AC40 is 15.5 µM.

With `CSc1ccc(/C=N/NC(=O)c2ccccc2Cl)cc1`, the AC40 was 6.47 µM.

In the case of `O=C(Nc1cccc(O)c1)c1ccc(Br)cc1`, the AC40 is 2.45 µM.

For `C=CCNc1nc(Cl)nc(Nc2ccccc2)n1`, the AC40 was 0.936 µM.

For the compound `O=C(Nc1ccc(Cl)c(Cl)c1)Nc1ccccc1O`, the AC40 is 1.14 µM.

Regarding `COc1ccccc1Cc1c(-c2ccc(C)cc2)nc2ccc(Cl)cn12`, the AC40 is 1.18 µM.

As for `Cc1csc(=O)n1CC(=O)OCc1cccc2ccccc12`, the AC40 is 11.4 µM.

On to `C[C@H]1CN([C@@H](C)CO)C(=O)CCCn2nncc2CO[C@@H]1CN(C)C(=O)Nc1ccc2c(c1)OCCO2`, for which the AC40 was 29.2 µM.

As to `CCSc1nnc(Nc2ccccc2)s1`, the AC40 was 11.1 µM.

For the compound `C1=NN(c2ccccc2)C=NN1c1ccccc1`, the AC40 was 1.17 µM.

As to `O=C(Nc1ccc2c(c1)COC2=O)c1ccc(Cl)c(Cl)c1`, the AC40 was 2.46 µM.

In the case of `CC(C)c1ccc(CNc2ncc(Br)cn2)cc1`, the AC40 is 4.25 µM.

Regarding `CC(=O)Nc1ccc(CNc2nc3cc(-c4ccsc4)sc3c(=O)n2C)cc1`, the AC40 is 6.16 µM.

As for `COC(=O)c1c(-c2ccc(S(C)(=O)=O)cc2)sc2ccc(OC)cc12`, the AC40 was 0.954 µM.

As for `N#Cc1c(/N=C/c2cccs2)sc2c1CCC2`, the AC40 was 0.897 µM.

For `CNC(=O)c1ccc(-c2cc3onc(-c4ccccc4)c3c(=O)n2C)cc1`, the AC40 was 1.16 µM.

As for `CCS(=O)(=O)n1nc(-c2ccc(OC)cc2)nc1SC`, the AC40 was 5.54 µM.

For the compound `C/C(=N/O)c1cccc(N2Cc3ccccc3C2)c1`, the AC40 is 18.5 µM.

Turning to `COc1ccc(-c2csc(C(C)(O)c3ccccc3)n2)cc1` (stereo not drawn), the AC40 is 14.9 µM.

In the case of `CC/C(=N\NC(=O)c1cc(C2CC2)[nH]n1)c1ccccc1`, the AC40 was 4.25 µM.

As for `O=c1c2ccccc2oc2cc(-c3ccc4cc[nH]c4c3)ccc12`, the AC40 was 1.46 µM.

As to `Nc1cc2c3ccccc3ccc2c2ccccc12`, the AC40 is 2.47 µM.

Consider `Cc1cccc(-c2noc(Cc3ccc(Cl)cc3)n2)c1`, for which the AC40 is 5.96 µM.

`O=C1C(=C2CCc3ccccc32)Cc2ccccc21`: the AC40 is 0.363 µM.

`CCc1ccc2cc3c(cc2n1)C(=O)c1ccccc1-3`: the AC40 is 2.32 µM.

With `O=C(NC1CCCCC1)c1n[nH]c2c1CC(c1ccccc1)CC2` (stereo not drawn), the AC40 is 0.996 µM.

Turning to `CC(=O)N(/N=C1\Sc2ccccc2C1=O)c1ccccc1`, the AC40 is under 0.26 µM.

As for `COc1ccc(CNC(=O)Nc2ccc(C)cc2)cc1`, the AC40 was 8.63 µM.

Turning to `O=C(Nc1ccc2c(c1)OCO2)c1cnc(Cl)c(Cl)c1`, the AC40 is 1.74 µM.

For `CSc1ccccc1NC(=O)c1cc(C(C)C)on1`, the AC40 was 3.11 µM.

For the compound `CC(C)CC1C(=O)N(Cc2cn(CCC3OCCCO3)nn2)CCS(=O)(=O)N1Cc1ccc(-c2ccc(Cl)nc2)cc1` (stereo not drawn), the AC40 was 12.9 µM.

With `O=C(O)c1ccc(O)c2ncccc12`, the AC40 is 1.67 µM.

In the case of `N#CCc1ccc(OC(=O)c2cccnc2Cl)cc1`, the AC40 is 15.7 µM.

Consider `Cc1ccc(O)c(CNc2ccccn2)c1`, for which the AC40 is 16.7 µM.

On to `CO[C@@H]1CN(C)C(=O)c2cc(NC(=O)Nc3ccc4c(c3)OCO4)ccc2OC[C@@H](C)NC[C@@H]1C`, for which the AC40 is 3.02 µM.

For the compound `Clc1ccc(-c2cnnc(-c3ccccn3)n2)cc1`, the AC40 is 1.79 µM.

Turning to `O=c1c2ccccc2oc2cc(Br)ccc12`, the AC40 is 7.16 µM.
